Test results reported in PMC9854712 (Antioxidants, 2023).

Key:
HT-29 cells = conditions: parent NSAIDs; cited from earlier work
HTB-54 cells = system: HTB-54 cells; set-up: method as in PMID 36257283; conditions: parent NSAIDs; cited from earlier work
MCF-7 cells = system: MCF-7 cells; set-up: method as in PMID 36257283; conditions: parent NSAIDs; cited from earlier work
AChE [1] = test: AChE inhibition quoted from the literature; type: biochemical; conditions: AChE IC50 ratio to 14a
AChE [2] = system: AChE; set-up: method as in PMID 25312723; conditions: cited from earlier work

For `COc1ccc2c(c1)c(CC(=O)O)c(C)n2C(=O)c1ccc(Cl)cc1` [Indomethacin, 2-[1-(4-chlorobenzoyl)-5-methoxy-2-methylindol-3-yl] acetic acid], the IC50 (HT-29 cells) is listed as greater than 100 µM, the IC50 (HTB-54 cells) is listed as greater than 100 µM and the IC50 (MCF-7 cells) is listed as greater than 100 µM.

In the case of selenepezil, the “fold lower IC50 than compound 14a” value (AChE [1]) is given as 9 fold and the IC50 (AChE [2]) is given as 0.097 µM.

For `CC(=O)Oc1ccccc1C(=O)O` [ASA], the IC50 (HT-29 cells) is given as greater than 100 µM, the IC50 (HTB-54 cells) is given as greater than 100 µM and the IC50 (MCF-7 cells) is given as greater than 100 µM.

In the case of `O=c1c2ccccc2[se]n1-c1ccccc1` [Ebselen, ebselen], the “fold higher IC50 than compound 14a” value (AChE [1]) is given as 32 fold and the IC50 (AChE [2]) is given as 29 µM.

For `COc1ccc2cc([C@H](C)C(=O)O)ccc2c1` [Naproxen, (2S)-2-(6-methoxynaphtalen-2-yl) propanoic acid], the IC50 (HT-29 cells) is given as greater than 100 µM, the IC50 (HTB-54 cells) is given as greater than 100 µM and the IC50 (MCF-7 cells) is given as greater than 100 µM.
